Assays:
Adrenergic α2A = biological target: T1, Adrenergic α2A (Homo sapiens, UniProt P08913); test: Eurofins Panlabs radioligand binding panel, adrenergic α2A; details: 10 uM
T1 sequence (P08913 1-465): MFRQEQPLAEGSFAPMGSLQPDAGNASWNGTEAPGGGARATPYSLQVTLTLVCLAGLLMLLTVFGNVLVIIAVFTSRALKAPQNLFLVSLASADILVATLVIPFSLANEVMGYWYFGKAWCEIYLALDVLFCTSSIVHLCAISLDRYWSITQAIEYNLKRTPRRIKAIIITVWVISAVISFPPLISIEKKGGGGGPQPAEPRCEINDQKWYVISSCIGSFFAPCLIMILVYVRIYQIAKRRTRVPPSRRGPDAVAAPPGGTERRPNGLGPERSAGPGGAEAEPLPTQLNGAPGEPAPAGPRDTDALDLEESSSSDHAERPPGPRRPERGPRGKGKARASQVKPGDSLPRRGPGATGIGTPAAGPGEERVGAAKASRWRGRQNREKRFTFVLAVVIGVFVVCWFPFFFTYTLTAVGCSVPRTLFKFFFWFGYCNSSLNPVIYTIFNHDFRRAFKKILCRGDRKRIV
Protocol: Each of the compounds was evaluated for binding to 87 different targets as part of a panel (Eurofins Panlabs, Taiwan, China). Each compound was tested at a single concentration of […]. The panel included mostly G-protein-couple receptors, ion channels, enzymes, transporters and nuclear receptors, expressed in the central nervous system, cardiovascular, respiratory, gastrointestinal and renal systems. A limited number of targets were of pig, rat or guinea pig origin. Targets were expressed in human recombinant cells lines, rat brain or spinal cord, guinea pig brain or pig heart. Methods were adapted from the scientific literature to maximize reliability and reproducibility. Reference standards were run as an integral part of each assay to ensure validity of the results obtained (available online at the eurofins website for the safety screen 87 panel).

rats = details: 4 hourly SC injections at 10 mg/kg/injection (Biezonski et al., 2013); cited from earlier work

Row | Structure (SMILES) | % inhibition of binding or activity (Adrenergic α2A) [%] | body temperature (rats)
1 | C[C@H](N)Cc1ccc2c(c1)OCO2 [S-MDA, S(+)-MDA] | 63 | 
2 | CNC(C)Cc1ccc2c(c1)OCO2 (racemic) [Racemic MDMA, 3,4-methylenedioxymethamphetamine] |  | significant increase in body temperature

From patent US20240082212A1, “USE OF MDMA FOR TREATMENT OF STRESS-RELATED DISORDERS” (priority 2022, published 2024)
